Molecular target: GCN2 (Homo sapiens (Human), UniProt Q9P2K8)
Assay: GCN2 enzyme assay
Format: biochemical
Method: For GCN2 enzyme assays, testing compounds were prepared at proper concentrations in DMSO solution. IC50 values were calculated from a remaining activity using read conversion ratio.

Chain of GCN2 (Q9P2K8 whole entry, species assumed): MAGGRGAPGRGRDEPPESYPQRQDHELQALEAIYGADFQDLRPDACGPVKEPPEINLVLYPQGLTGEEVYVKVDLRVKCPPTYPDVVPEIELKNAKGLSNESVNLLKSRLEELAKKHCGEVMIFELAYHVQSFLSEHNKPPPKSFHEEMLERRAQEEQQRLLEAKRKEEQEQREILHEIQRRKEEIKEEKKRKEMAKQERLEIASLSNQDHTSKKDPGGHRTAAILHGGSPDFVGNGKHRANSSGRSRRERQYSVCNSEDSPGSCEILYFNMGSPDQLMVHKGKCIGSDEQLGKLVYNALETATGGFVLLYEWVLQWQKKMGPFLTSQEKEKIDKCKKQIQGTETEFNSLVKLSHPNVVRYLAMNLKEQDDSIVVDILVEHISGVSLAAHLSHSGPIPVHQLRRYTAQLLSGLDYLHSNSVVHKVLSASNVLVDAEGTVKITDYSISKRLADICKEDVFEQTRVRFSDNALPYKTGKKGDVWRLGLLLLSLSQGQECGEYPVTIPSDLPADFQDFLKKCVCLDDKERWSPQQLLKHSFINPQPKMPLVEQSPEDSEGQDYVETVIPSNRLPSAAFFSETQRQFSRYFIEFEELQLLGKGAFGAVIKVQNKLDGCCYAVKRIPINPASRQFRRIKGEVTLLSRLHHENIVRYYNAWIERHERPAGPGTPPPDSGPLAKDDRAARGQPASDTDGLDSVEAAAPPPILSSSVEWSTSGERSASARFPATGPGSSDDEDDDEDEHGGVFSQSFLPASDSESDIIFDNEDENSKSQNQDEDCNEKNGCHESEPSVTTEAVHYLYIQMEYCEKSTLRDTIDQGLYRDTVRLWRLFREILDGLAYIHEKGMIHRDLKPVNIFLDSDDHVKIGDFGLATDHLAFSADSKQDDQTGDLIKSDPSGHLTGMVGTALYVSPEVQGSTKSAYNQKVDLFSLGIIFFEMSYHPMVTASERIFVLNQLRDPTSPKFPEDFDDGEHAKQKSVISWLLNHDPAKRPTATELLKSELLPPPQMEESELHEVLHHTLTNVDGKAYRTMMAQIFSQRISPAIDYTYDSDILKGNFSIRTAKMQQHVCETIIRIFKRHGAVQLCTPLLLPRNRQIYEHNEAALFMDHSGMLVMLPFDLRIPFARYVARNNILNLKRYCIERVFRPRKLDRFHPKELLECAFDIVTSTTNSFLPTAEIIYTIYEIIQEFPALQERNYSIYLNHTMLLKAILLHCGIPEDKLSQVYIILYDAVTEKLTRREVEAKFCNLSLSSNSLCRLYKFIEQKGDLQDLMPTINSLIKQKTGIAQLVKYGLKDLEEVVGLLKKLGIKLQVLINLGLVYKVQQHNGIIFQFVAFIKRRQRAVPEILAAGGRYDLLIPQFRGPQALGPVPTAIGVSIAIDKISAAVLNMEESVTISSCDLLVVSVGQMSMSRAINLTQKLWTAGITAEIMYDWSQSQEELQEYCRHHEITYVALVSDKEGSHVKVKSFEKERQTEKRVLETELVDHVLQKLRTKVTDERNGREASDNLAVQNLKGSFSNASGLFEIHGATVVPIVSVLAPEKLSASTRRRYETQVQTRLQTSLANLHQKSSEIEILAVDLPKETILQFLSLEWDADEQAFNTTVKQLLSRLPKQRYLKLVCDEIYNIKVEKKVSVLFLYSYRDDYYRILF

| Structure (SMILES) | IC50 |
| --- | --- |
| COc1ncc(Cl)cc1S(=O)(=O)Nc1ccc(F)c(-c2ccc3nc(N[C@@H]4CC[C@@H](C(N)=O)C4)ncc3c2)c1F [Compound 14, (1R,3R)-3-((6-(3-((5-chloro-2-methoxypyridine)-3-sulfonamido)-2,6-difluorophenyl)quinaz-zolin-2-yl)amino)cyclopent-ane-1-carboxamide 2,2,2-trifluoroacetate] | 3.39 nM |
| COc1ncc(Cl)cc1S(=O)(=O)Nc1ccc(F)c(-c2ccc3nc(N[C@H]4CC[C@H](N)CC4)ncc3c2)c1F [Compound 62, N-(3-(2-(((1R,4R)-4-aminocyclohexyl)amino)quinazolin-6-yl)-2,4-difluorophenyl)-5-chloro-2-methoxypyridine-3-sulfonamide] | 1.64 nM |
| CCc1cc(-c2c(F)ccc(NS(=O)(=O)c3cc(Cl)cnc3OC)c2F)cc2cnc(N[C@H]3CC[C@H](N(C)C)CC3)nc12 [Compound 57, 5-chloro-N-(3-(2-(((1R,4R)-4-(dimethylamino)cy-clohexyl)amino)-8-ethylquinazolin-6-yl)-2,4-difluorophenyl)-2-methoxypyridine-3-sulfonamide] | 3.95 nM |
| CCc1cc(-c2c(Cl)cnc(NS(=O)(=O)c3cc(Cl)cnc3OC)c2Cl)cc2cnc(N)nc12 [Compound 40, N-(4-(2-amino-8-ethylquinazolin-6-yl)-3,5-dichloropyridin-2-yl)-5-chloro-2-methoxypyridine-3-sulfonamide] | 8.33 nM |
| CN[C@H]1CC[C@H](Nc2ncc3cc(-c4c(F)ccc(NS(=O)(=O)c5cc(Cl)cnc5OC)c4F)ccc3n2)CC1 [Compound 48, 5-chloro-N-(2,4-difluoro-3-(2-(((1R,4R)-4-(methylamino)cyclo-hexyl)amino)quina-zolin-6-yl)phenyl)-2-methoxypyridine-3-sulfonamide] | 3.23 nM |
| CN(C)CCNC(=O)[C@H]1CC[C@H](Nc2ncc3cc(-c4c(F)ccc(NS(=O)(=O)c5cc(Cl)cc(CO)c5Cl)c4F)ccc3n2)CC1 [Compound 4, (1R,4R)-4-((6-(3-((2,5-dichloro-3-(hydroxymethyl)phe-nyl)sulfonamido)-2,6-difluorophenyl)quina-zolin-2-yl)amino)-N-(2-(dimethylamino)eth-yl)cyclohexane-1-carboxamide] | 3.94 nM |
| COCCNC(=O)[C@H]1CC[C@H](Nc2ncc3cc(-c4c(Cl)ccc(NS(=O)(=O)c5cc(Cl)cnc5OC)c4Cl)ccc3n2)CC1 [Compound 21, (1R,4R)-4-((6-(2,6-dichloro-3-((5-chloro-2-methoxypyridine)-3-sulfonamido)phenyl)quinazolin-2-yl)amino)-N-(2-methoxyethyl)cyclo-hexane-1-carboxamide] | 31.9 nM |
| CCc1cc(-c2c(F)ccc(NS(=O)(=O)c3cc(Cl)cnc3OC)c2F)cc2cnc(N[C@H]3CC[C@H](NC)CC3)nc12 [Compound 45, 5-chloro-N-(3-(8-ethyl-2-(((1R,4R)-4-(methylamino)cyclo-hexyl)amino)quina-zolin-6-yl)-2,4-difluorophenyl)-2-methoxypyridine-3-sulfonamide] | 88.3 nM |
| COCCNC(=O)N1CC[C@@H](Nc2ncc3cc(-c4c(Cl)ccc(NS(=O)(=O)c5cc(Cl)cnc5OC)c4Cl)ccc3n2)C1 [Compound 18] | 41.6 nM |
| CCc1cc(-c2c(F)ccc(NS(=O)(=O)c3ccccc3Cl)c2F)cc2cnc(N[C@H]3CC[C@H](NC)CC3)nc12 [Compound 65, 2-chloro-N-(3-(8-ethyl-2-(((1R,4R)-4-(methylamino)cyclo-hexyl)amino)quina-zolin-6-yl)-2,4-difluorophenyl)ben-zenesulfonamide] | 43.7 nM |
| CCc1cc(-c2c(F)ccc(NS(=O)(=O)c3ccccc3Cl)c2F)cc2cnc(N[C@H]3CC[C@H](N)CC3)nc12 [Compound 68, N-(3-(2-(((1R,4R)-4-aminocyclohexyl)amino)-8-ethylquinazolin-6-yl)-2,4-difluorophenyl)-2-chlorobenzenesulfon-amide] | 39.8 nM |
| COc1ncc(Cl)cc1S(=O)(=O)Nc1ccc(Cl)c(-c2ccc3nc(N[C@@H]4CC[C@@H](C(N)=O)C4)ncc3c2)c1Cl [Compound 16, (1R,3R)-3-((6-(2,6-dichloro-3-((5-chloro-2-methoxypyridine)-3-sulfonamido)phenyl)quinazolin-2-yl)amino)cyclopent-ane-1-carboxamide] | 11.7 nM |
| COCCNC(=O)[C@H]1C[C@H](Nc2ncc3cc(-c4c(Cl)ccc(NS(=O)(=O)c5cc(Cl)cnc5OC)c4Cl)ccc3n2)CN1 [Compound 17, (2R,4S)-4-((6-(2,6-dichloro-3-((5-chloro-2-methoxypyridine)-3-sulfonamido)phenyl)quinazolin-2-yl)amino)-N-(2-methoxyethyl)pyr-rolidine-2-carboxamide] | 9.17 nM |
| Cc1ncc(Cl)cc1S(=O)(=O)Nc1ccc(F)c(-c2ccc3nc(N[C@H]4CC[C@H](N(C)C)CC4)ncc3c2)c1F [Compound 6, 5-chloro-N-(3-(2-(((1R,4R)-4-(dimethylamino)cy-clohexyl)amino)quinazolin-6-yl)-2,4-difluorophenyl)-2-methylpyridine-3-sulfonamide] | 3.36 nM |
| Nc1ncc2cc(-c3c(F)cnc(NS(=O)(=O)c4ccccc4Cl)c3F)ccc2n1 [Compound 75, N-(4-(2-aminoquinazolin-6-yl)-3,5-difluoropyridin-2-yl)-2-chlorobenzenesulfon-amide] | 367 nM |
| CCc1cc(-c2c(F)ccc(NS(=O)(=O)c3ccccc3Cl)c2F)cc2cnc(N[C@H]3CC[C@H](N(C)C)CC3)nc12 [Compound 64, 2-chloro-N-(3-(2-(((1R,4R)-4-(dimethylamino)cy-clohexyl)amino)-8-ethylquinazolin-6-yl)-2,4-difluorophenyl)ben-zenesulfonamide] | 26.8 nM |

Now from value to compound:

| IC50 | Structure (SMILES) |
| --- | --- |
| 3.96 nM | COCCNC[C@@H]1CC[C@@H](Nc2ncc3cc(-c4c(F)ccc(NS(=O)(=O)c5cc(Cl)cnc5OC)c4F)ccc3n2)C1 [Compound 13, 5-chloro-N-(2,4-difluoro-3-(2-(((1R,3R)-3-(((2-methoxyethyl)ami-no)methyl)cyclopent-yl)amino)quina-zolin-6-yl)phenyl)-2-methoxypyridine-3-sulfonamide] |
| 4.18 nM | COCCNC(=O)[C@H]1C[C@H](Nc2ncc3cc(-c4c(F)ccc(NS(=O)(=O)c5cc(Cl)cnc5OC)c4F)ccc3n2)CN1 [Compound 15, (2R,4S)-4-((6-(3-((5-chloro-2-methoxypyridine)-3-sulfonamido)-2,6-difluorophenyl)quina-zolin-2-yl)amino)-N-(2-methoxyethyl)pyr-rolidine-2-carboxamide] |
| 81.2 nM | CN(C)[C@H]1CC[C@H](Nc2ncc3cc(-c4c(F)ccc(NS(=O)(=O)c5ccccc5Cl)c4F)ccc3n2)CC1 [Compound 70, 2-chloro-N-(3-(2-(((1R,4R)-4-(dimethylamino)cy-clohexyl)amino)quinazolin-6-yl)-2,4-difluorophenyl)ben-zenesulfonamide] |
| 1.11 nM | CN(C)[C@H]1CC[C@H](Nc2ncc3cc(-c4c(F)ccc(NS(=O)(=O)c5cc(Cl)cc(CO)c5Cl)c4F)ccc3n2)CC1 [Compound 53, 2,5-dichloro-N-(3-(2-(((1R,4R)-4-(dimethylamino)cy-clohexyl)amino)quinazolin-6-yl)-2,4-difluorophenyl)-3-(hydroxymethyl)ben-zenesulfonamide] |
| 12.6 nM | COCCNC[C@@H]1CCC(Nc2ncc3cc(-c4c(Cl)ccc(NS(=O)(=O)c5cc(Cl)cnc5OC)c4Cl)ccc3n2)C1 (stereo partly drawn) [Compound 7, 5-chloro-N-(2,4-dichloro-3-(2-(((1R,3R)-3-(((2-methoxyethyl)ami-no)methyl)cyclopent-yl)amino)quina-zolin-6-yl)phenyl)-2-methoxypyridine-3-sulfonamide] |
| 123 nM | N[C@H]1CC[C@H](Nc2ncc3cc(-c4c(F)ccc(NS(=O)(=O)c5ccccc5Cl)c4F)ccc3n2)CC1 [Compound 71, N-(3-(2-(((1R,4R)-4-aminocyclohexyl)amino)quinazolin-6-yl)-2,4-difluorophenyl)-2-chlorobenzenesulfon-amide 2,2,2-trifluoroacetate] |
| 8.82 nM | CCc1cc(-c2c(Cl)cnc(NS(=O)(=O)c3cc(Cl)cc(CO)c3Cl)c2Cl)cc2cnc(N)nc12 [Compound 35, N-(4-(2-amino-8-ethylquinazolin-6-yl)-3,5-dichloropyridin-2-yl)-2,5-dichloro-3-(hydroxymethyl)ben-zenesulfonamide] |
| 10.4 nM | COCCNC(=O)N1CC[C@@H](Nc2ncc3cc(-c4c(F)ccc(NS(=O)(=O)c5cc(Cl)cc(CO)c5Cl)c4F)ccc3n2)C1 [Compound 1, (R)-3-((6-(3-((2,5-dichloro-3-(hydroxymethyl)phe-nyl)sulfonamido)-2,6-difluorophenyl)quina-zolin-2-yl)amino)-N-(2-methoxyethyl)pyr-rolidine-1-carboxamide] |
| 7.62 nM | O=S1(=O)CCC(Nc2ncc3cc(-c4c(F)ccc(NS(=O)(=O)c5cc(Cl)cc(CO)c5Cl)c4F)ccc3n2)C1 (stereo not shown) [Compound 12, 2,5-dichloro-N-(3-(2-((1,1-dioxidotetrahydro-thiophen-3-yl)amino)quinazo-lin-6-yl)-2,4-difluorophenyl)-3-(hydroxymethyl)ben-zenesulfonamide] |
| 5.13 nM | CCc1cc(-c2c(F)ccc(NS(=O)(=O)c3cc(Cl)cnc3OC)c2F)cc2cnc(N[C@H]3CC[C@H](N)CC3)nc12 [Compound 52, N-(3-(2-(((1R,4R)-4-aminocyclohexyl)amino)-8-ethylquinazolin-6-yl)-2,4-difluorophenyl)-5-chloro-2-methoxypyridine-3-sulfonamide] |
| 7.32 nM | CCc1cc(-c2c(F)cnc(NS(=O)(=O)c3cc(Cl)cnc3OC)c2F)cc2cnc(N)nc12 [Compound 38, N-(4-(2-amino-8-ethylquinazolin-6-yl)-3,5-difluoropyridin-2-yl)-5-chloro-2-methoxypyridine-3-sulfonamide] |
| 25.3 nM | COc1ncc(Cl)cc1S(=O)(=O)Nc1ccc(Cl)c(-c2ccc3nc(NC4CCS(=O)(=O)C4)ncc3c2)c1Cl (stereo not shown) [Compound 27, 5-chloro-N-(2,4-dichloro-3-(2-((1,1-dioxidotetrahydro-thiophen-3-yl)amino)quinazo-lin-6-yl)phenyl)-2-methoxypyridine-3-sulfonamide] |
